The values below are quoted from earlier work in patent US20250325256A1, “LIPID PATCH” (SENSACH AB, priority 2021, published 2025).

For the series the following is noted: cited from earlier work.

Regarding `CCCCCCCC/C=C\CCCCCCCC(=O)OCC(O)CO` (stereo not shown) [GMO, Glycerol monooleate], the solubility in water result is on record as “around 10^−6 M”.
